Results reported in patent US20230015308A1, “SUBSTITUTED THIAZOLE AROMATIC RING-BASED COMPOUND AND PREPARATION METHOD THEREFOR, HERBICIDAL COMPOSITION AND USE THEREOF” (QINGDAO KINGAGROOT CHEMICAL COMPOUND CO., LTD., priority 2019, published 2023).

What was measured:
Experiment in all cases: Weeding effect in post-emergence stage (greenhouse pot test)
Assay type in all cases: in vivo
Settings in all cases: 15 g a.i./ha, 3 weeks after application
Abutilon theophrasti = tested on: Abutilon theophrasti
Text: (§1) The activity level criteria for plant damage (i.e., growth control rate) are as follows:
(§2) Level 5: growth control rate is above 85%;
(§3) Level 4: growth control rate is greater than or equal to 60% and less than 85%;
(§4) Level 3: growth control rate is greater than or equal to 40% and less than 60%;
(§5) Level 2: growth control rate is greater than or equal to 20% and less than 40%;
(§6) Level 1: growth control rate is greater than or equal to 5% and less than 20%;
(§7) Level 0: growth control rate is less than 5%.
(§8) The above growth control rates are fresh weight control rates.
(§9) Experiment on weeding effect in post-emergence stage:
(§10) Monocotyledonous and dicotyledonous weed seeds (Descurainia sophia, Capsella bursa-pastoris, Abutilon theophrasti, Galium aparine, Stellaria media, Lithospermum arvense, Rorippa indica, Alopecurus aequalis, Alopecurus japonicus, Beckmannia syzigachne, Sclerochloa dura, Conyza Canadensis, Phleum paniculatum, Veronica didyma Tenore, Eleusine indica, Bromus japonicus, Aegilops tauschii, Phalaris arundinacea, Amaranthus retroflexus, Chenopodium album, Commelina communis, Sonchus arvensis, Convolvulus arvensis, Cirsium setosum, Solanum nigrum, Acalypha australis, Digitaria sanguinalis, Echinochloa crusgalli, Setaria viridis, Setaria glauca, Leptochloa chinensis, Monochoria vaginalis, Sagittaria trifolia, Scirpus juncoides, Cyperus rotundus, Cyperus iria, Cyperus difformis, Fimbristylis, Portulaca oleracea, Xanthium sibiricum, Pharbitis nil) and major crop seeds (wheat, corn, rice, soybean, cotton, oilseed rape, millet, sorghum, potato, sesame, ricinus) were placed in plastic pots filled with soil, then covered with 0.5-2 cm of soil, allowed to grow in a good greenhouse environment. After 2 weeks of sowing, the test plants were treated in the 2-3 leaf stage. The tested compounds of the present invention were respectively dissolved in acetone, then added with Tween 80 and 1.5 liter/ha of emulsifiable concentrate of methyl oleate as synergist, diluted with a certain amount of water to obtain a solution with a certain concentration, and sprayed with a spray tower onto the plants. After the application, the plants were cultured for 3 weeks in the greenhouse, and then the experimental results of the weeding were counted. The doses of the used compounds were 500, 250, 125, 60, 15 g a.i./ha, and the averages were obtained by repeating for three times.

Amaranthus retroflexus = tested on: Amaranthus retroflexus
Text: as §1, §2, §3, §4, §5, §6, §7, §8, §9, §10

Digitaria sanguinalis = tested on: Digitaria sanguinalis
Text: as §1, §2, §3, §4, §5, §6, §7, §8, §9, §10

Echinochloa crusgalli = tested on: Echinochloa crusgalli
Text: as §1, §2, §3, §4, §5, §6, §7, §8, §9, §10

Galium aparine = tested on: Galium aparine
Text: as §1, §2, §3, §4, §5, §6, §7, §8, §9, §10

Setaria viridis = tested on: Setaria viridis
Text: as §1, §2, §3, §4, §5, §6, §7, §8, §9, §10

Veronica didyma Tenore = tested on: Veronica didyma Tenore
Text: as §1, §2, §3, §4, §5, §6, §7, §8, §9, §10

Alopecurus japonicus = tested on: Alopecurus japonicus
Text: as §1, §2, §3, §4, §5, §6, §7, §8, §9, §10

Beckmannia syzigachne = tested on: Beckmannia syzigachne
Text: as §1, §2, §3, §4, §5, §6, §7, §8, §9, §10

SMILES	Abutilon theophrasti, activity level (fresh weight growth control rate) (Abutilon theophrasti)	Amaranthus retroflexus, activity level (fresh weight growth control rate) (Amaranthus retroflexus)	Digitaria sanguinalis, activity level (fresh weight growth control rate) (Digitaria sanguinalis)	Echinochloa crusgalli, activity level (fresh weight growth control rate) (Echinochloa crusgalli)	Galium aparine, activity level (fresh weight growth control rate) (Galium aparine)	Setaria viridis, activity level (fresh weight growth control rate) (Setaria viridis)	Veronica didyma Tenore, activity level (fresh weight growth control rate) (Veronica didyma Tenore)	Alopecurus japonicus, activity level (fresh weight growth control rate) (Alopecurus japonicus)	Beckmannia syzigachne, activity level (fresh weight growth control rate) (Beckmannia syzigachne)
CC(C)=NOC(=O)c1cnc(-c2cc(-n3c(=O)cc(C(F)(F)F)n(C)c3=O)c(F)cc2Cl)s1 [1-55]	5 (Level 5: growth control rate is above 85%)	5 (Level 5: growth control rate is above 85%)	5 (Level 5: growth control rate is above 85%)	5 (Level 5: growth control rate is above 85%)	5 (Level 5: growth control rate is above 85%)	5 (Level 5: growth control rate is above 85%)	5 (Level 5: growth control rate is above 85%)	–	–
CCOC(=O)c1cnc(-c2nc(-n3c(=O)n(C)c(=S)n(C)c3=O)c(F)cc2Cl)s1 [1-123]	5 (Level 5: growth control rate is above 85%)	5 (Level 5: growth control rate is above 85%)	5 (Level 5: growth control rate is above 85%)	5 (Level 5: growth control rate is above 85%)	5 (Level 5: growth control rate is above 85%)	5 (Level 5: growth control rate is above 85%)	5 (Level 5: growth control rate is above 85%)	5 (Level 5: growth control rate is above 85%)	5 (Level 5: growth control rate is above 85%)
CCOC(=O)c1cnc(-c2cc(-n3c(=S)cc(C(F)(F)F)n(C)c3=O)c(F)cc2Cl)s1 [1-103]	5 (Level 5: growth control rate is above 85%)	5 (Level 5: growth control rate is above 85%)	5 (Level 5: growth control rate is above 85%)	5 (Level 5: growth control rate is above 85%)	5 (Level 5: growth control rate is above 85%)	5 (Level 5: growth control rate is above 85%)	5 (Level 5: growth control rate is above 85%)	4 (Level 4: growth control rate is greater than or equal to 60% and less than 85%)	4 (Level 4: growth control rate is greater than or equal to 60% and less than 85%)
COC(=O)c1nc(-c2cc(-n3c(=O)n(C)c(=S)n(C)c3=O)c(F)cc2Cl)cs1 [4-158]	–	5 (Level 5: growth control rate is above 85%)	–	–	5 (Level 5: growth control rate is above 85%)	–	5 (Level 5: growth control rate is above 85%)	–	–
CCOC(=O)c1csc(-c2cc(-n3c(=O)n(C)c(=S)n(C)c3=O)c(F)cc2Cl)n1 [2-113]	–	5 (Level 5: growth control rate is above 85%)	–	–	5 (Level 5: growth control rate is above 85%)	–	5 (Level 5: growth control rate is above 85%)	–	–
Cn1c(C(F)(F)F)cc(=O)n(-c2cc(-c3ncc(C(=O)OCc4ccccc4)s3)c(Cl)cc2F)c1=O [1-35]	5 (Level 5: growth control rate is above 85%)	5 (Level 5: growth control rate is above 85%)	3 (Level 3: growth control rate is greater than or equal to 40% and less than 60%)	4 (Level 4: growth control rate is greater than or equal to 60% and less than 85%)	5 (Level 5: growth control rate is above 85%)	5 (Level 5: growth control rate is above 85%)	5 (Level 5: growth control rate is above 85%)	–	–
COC(=O)C(C)OC(=O)c1cnc(-c2cc(-n3c(=O)cc(C(F)(F)F)n(C)c3=O)c(F)cc2Cl)s1 (centres unmarked) [1-48]	5 (Level 5: growth control rate is above 85%)	5 (Level 5: growth control rate is above 85%)	4 (Level 4: growth control rate is greater than or equal to 60% and less than 85%)	5 (Level 5: growth control rate is above 85%)	5 (Level 5: growth control rate is above 85%)	5 (Level 5: growth control rate is above 85%)	5 (Level 5: growth control rate is above 85%)	–	–
COC(=O)c1nc(-c2cc(-n3c(=O)cc(C(F)(F)F)n(C)c3=O)c(F)cc2Cl)cs1 [4-1]	–	5 (Level 5: growth control rate is above 85%)	–	4 (Level 4: growth control rate is greater than or equal to 60% and less than 85%)	–	–	5 (Level 5: growth control rate is above 85%)	–	–
CCOC(=O)c1csc(-c2cc(-n3c(=O)cc(C(F)(F)F)n(C)c3=O)c(F)cc2Cl)n1 [2-2]	5 (Level 5: growth control rate is above 85%)	5 (Level 5: growth control rate is above 85%)	4 (Level 4: growth control rate is greater than or equal to 60% and less than 85%)	–	5 (Level 5: growth control rate is above 85%)	–	5 (Level 5: growth control rate is above 85%)	–	–
